Results on one compound are retold here after US20260108465A1 (Belhaven BioPharma Inc., priority 2024, published 2026).

Read-outs that look alike come from different tables or passages of the source.

For this data set the following is noted: human, in vivo; for mean AUC0-363: im.

Description: Twelve human subjects participated in the open-label, single sequence crossover study. […] The subjects returned for a safety follow up visit 3 to 5 days after the final treatment. […] Nor did the subject participate in Treatment D.
The dry powder formulation was administered via intranasal instillation once using a nasal device (APTAR). The IM solution and materials were supplied by the study site and prepared according to the local procedures. The study drug was administered at approximately the same time on each treatment day. There was a washout period of 20 days between the nasal doses administered as treatment A and treatment D. The subjects were admitted to the clinical site the day before each treatment administration and remained on site until at least 8 hours post-dose, or when applicable, until 24 hours post-dose of the specific treatment period. The study drug was administered after at least a 10 hour fast. A standardized meal was provided approximately 4 hours after dosing.
Blood samples were collected prior to dosing at 60, 30, and 0 minutes before dosing, and after dosing at 2, 5, 7, 10, 15, 20, 25, 30, 45, 60, 90, 120, 180, 240, and 360 minutes. Vital signs, ECGs, and cardiac telemetry were obtained throughout the treatment period. […] The calibration curve range of the bioanalytical method was from 10 to 10000 pg/mL.
Noncompartmental analysis was performed on individual human subject plasma concentration-time data using nominal doses and actual blood sampling times. […] Baseline correction was accomplished using the average of the measured concentrations at nominal times of −60, −30, and 0 minutes before dosing.
Pharmacokinetic analyses were performed using the standard PK analysis software package PHOENIX® WinNonlin version 8.4.

For `CNC[C@H](O)c1ccc(O)c(O)c1` [Epinephrine IM, epinephrine], the “time of the second IM Cmax after dosing” value was “approximately 45 minutes”. Further, for the setting “0.3 mg”, the “mean AUC0-363” value is 18790 pg·min/mL. The “mean AUC0-363” value (0.5 mg) amounted to 35890 pg·min/mL.
